Measurements: publication PMC9814779, “A triple farnesoid X receptor and peroxisome proliferator-activated receptor α/δ activator reverses hepatic fibrosis in diet-induced NASH in mice” (Communications Chemistry, 2020)

How the values were obtained:
[1] = target: T1, human PPARα ligand-binding domain (Gal4 chimera) (Homo sapiens, UniProt Q07869); experiment: Gal4 hybrid reporter gene assay, PPARα; type: cell-based; set-up: Emax: dose or concentration left out as unconfirmed
T1 construct: coding for the hinge region and LBD of the canonical isoform of the respective nuclear receptor; expressed in transfected cells; host or cells: HEK293T
T1 sequence (Q07869 239-466 limits assumed): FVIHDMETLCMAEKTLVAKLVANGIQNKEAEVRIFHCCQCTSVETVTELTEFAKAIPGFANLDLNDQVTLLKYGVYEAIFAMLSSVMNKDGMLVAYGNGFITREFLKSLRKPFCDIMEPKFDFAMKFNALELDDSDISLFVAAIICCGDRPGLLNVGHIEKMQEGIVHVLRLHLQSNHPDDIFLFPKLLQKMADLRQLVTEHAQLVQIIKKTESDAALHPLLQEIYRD

[2] = target: T2, human PPARγ ligand-binding domain (Gal4 chimera) (Homo sapiens, UniProt P37231); experiment: Gal4 hybrid reporter gene assay, PPARγ; type: cell-based; set-up: Emax: dose or concentration left out as unconfirmed
T2 construct: coding for the hinge region and LBD of the canonical isoform of the respective nuclear receptor; expressed in transfected cells; host or cells: HEK293T
T2 sequence (P37231 238-503 limits assumed): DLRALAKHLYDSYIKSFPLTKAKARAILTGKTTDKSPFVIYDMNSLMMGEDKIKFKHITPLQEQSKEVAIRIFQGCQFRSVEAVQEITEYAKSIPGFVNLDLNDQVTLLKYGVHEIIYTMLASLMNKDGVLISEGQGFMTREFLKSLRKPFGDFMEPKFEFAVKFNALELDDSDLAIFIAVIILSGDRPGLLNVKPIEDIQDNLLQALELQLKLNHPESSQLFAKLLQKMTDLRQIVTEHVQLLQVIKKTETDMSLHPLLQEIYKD

Work on `CC(C)(C)c1ccc(C(=O)Nc2cccc(CCC(=O)O)c2)c(NC(=O)c2ccc(-c3ccco3)cc2)c1` [compound 41, 3-(3-[4-{tert-Butyl}-2-{4-(2-furyl)}benzamido]phenyl)propanoic acid] yielded an EC50 ([1]; EC50 [μM] PPARα, HEK293T, mean ± SEM, n = 3) of 0.17 ± 0.04 µM, an EC50 ([1]; PPARα EC50, as stated in text) of 0.168 µM and an Emax ([1]; read-out: max. rel. act. PPARα) of 72%. For the same compound, the EC50 [2] was 2400 ± 100 nM and the Emax ([2]; read-out: max. rel. act. PPARγ) was 16%.
